From paper PMC5448077, “Development of an orally available inhibitor of CLK1 for skipping a mutated dystrophin exon in Duchenne muscular dystrophy” (Scientific Reports, 2017)

Key:
Test in all cases: biochemical
ABL(E255K) = target: T1, ABL(E255K) (Homo sapiens, UniProt P00519, E255K)
T1 construct: gene ABL1
Summary of the method: (§1)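 Human kinases phosphorylating kinase-specific synthetic peptides, assayed by mobility shift (MSA) or IMAP fluorescence polarization, in 20 mM HEPES pH 7.5, 0.01% Triton X-100, 2 mM DTT with substrate/ATP-metal. Reactions ran 1 or 5 h at room temperature; activity = P/(P + S) from product and substrate peak heights.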

ARG = target: T2, ARG (Homo sapiens, UniProt P42684)
T2 construct: gene ABL2
Summary of the method: as §1

AurC = target: T3, AurC (Homo sapiens, UniProt Q9UQB9)
T3 construct: gene AURKC
Summary of the method: as §1

BRK = target: T4, BRK (Homo sapiens, UniProt Q13882)
T4 construct: gene PTK6
Summary of the method: as §1

CDK4/CycD3 = CDK4/CycD3 (Homo sapiens, UniProt P11802)
Summary of the method: as §1

CK1γ3 = target: T5, CK1γ3 (Homo sapiens, UniProt Q9Y6M4)
T5 construct: gene CSNK1G3
Summary of the method: as §1

EPHA7 = EPHA7 (Homo sapiens, UniProt Q15375)
Summary of the method: as §1

Erk1 = target: T6, Erk1 (Homo sapiens, UniProt P27361)
T6 construct: gene MAPK3
Summary of the method: as §1

Erk5 = target: T7, Erk5 (Homo sapiens, UniProt Q13164)
T7 construct: gene MAPK7
Summary of the method: as §1

FGFR4(V550E) = FGFR4(V550E) (Homo sapiens, UniProt P22455, V550E)
Summary of the method: as §1

GSK3β = target: T8, GSK3β (Homo sapiens, UniProt P49841)
T8 construct: gene GSK3B
Summary of the method: as §1

HIPK2 = HIPK2 (Homo sapiens, UniProt Q9H2X6)
Summary of the method: as §1

HIPK4 = HIPK4 (Homo sapiens, UniProt Q8NE63)
Summary of the method: as §1

LOK = target: T9, LOK (Homo sapiens, UniProt O94804)
T9 construct: gene STK10
Summary of the method: as §1

MAPKAPK2 = MAPKAPK2 (Homo sapiens, UniProt P49137)
Summary of the method: as §1

NEK9 = NEK9 (Homo sapiens, UniProt Q8TD19)
Summary of the method: as §1

NuaK2 = NuaK2 (Homo sapiens, UniProt Q9H093)
Summary of the method: as §1

PAK1 = PAK1 (Homo sapiens, UniProt Q13153)
Summary of the method: as §1

PAK6 = PAK6 (Homo sapiens, UniProt Q9NQU5)
Summary of the method: as §1

PDK1 = target: T10, PDK1 (Homo sapiens, UniProt O15530)
T10 construct: gene PDPK1
Summary of the method: as §1

PGK = target: T11, PGK (Homo sapiens, UniProt Q13976)
T11 construct: gene PRKG1
Summary of the method: as §1

PIM3 = PIM3 (Homo sapiens, UniProt Q86V86)
Summary of the method: as §1

PKACα = target: T12, PKACα (Homo sapiens, UniProt P17612)
T12 construct: gene PRKACA
Summary of the method: as §1

PKACγ = target: T13, PKACγ (Homo sapiens, UniProt P22612)
T13 construct: gene PRKACG
Summary of the method: as §1

PKCδ = target: T14, PKCδ (Homo sapiens, UniProt Q05655)
T14 construct: gene PRKCD
Summary of the method: as §1

PKN1 = PKN1 (Homo sapiens, UniProt Q16512)
Summary of the method: as §1

RET(S891A) = RET(S891A) (Homo sapiens, UniProt P07949, S891A)
Summary of the method: as §1

SRM = target: T15, SRM (Homo sapiens, UniProt Q9H3Y6)
T15 construct: gene SRMS
Summary of the method: as §1

TBK1 = TBK1 (Homo sapiens, UniProt Q9UHD2)
Summary of the method: as §1

TRKB = target: T16, TRKB (Homo sapiens, UniProt Q16620)
T16 construct: gene NTRK2
Summary of the method: as §1

TXK = TXK (Homo sapiens, UniProt P42681)
Summary of the method: as §1

Chain of NuaK2 (Q9H093 whole entry): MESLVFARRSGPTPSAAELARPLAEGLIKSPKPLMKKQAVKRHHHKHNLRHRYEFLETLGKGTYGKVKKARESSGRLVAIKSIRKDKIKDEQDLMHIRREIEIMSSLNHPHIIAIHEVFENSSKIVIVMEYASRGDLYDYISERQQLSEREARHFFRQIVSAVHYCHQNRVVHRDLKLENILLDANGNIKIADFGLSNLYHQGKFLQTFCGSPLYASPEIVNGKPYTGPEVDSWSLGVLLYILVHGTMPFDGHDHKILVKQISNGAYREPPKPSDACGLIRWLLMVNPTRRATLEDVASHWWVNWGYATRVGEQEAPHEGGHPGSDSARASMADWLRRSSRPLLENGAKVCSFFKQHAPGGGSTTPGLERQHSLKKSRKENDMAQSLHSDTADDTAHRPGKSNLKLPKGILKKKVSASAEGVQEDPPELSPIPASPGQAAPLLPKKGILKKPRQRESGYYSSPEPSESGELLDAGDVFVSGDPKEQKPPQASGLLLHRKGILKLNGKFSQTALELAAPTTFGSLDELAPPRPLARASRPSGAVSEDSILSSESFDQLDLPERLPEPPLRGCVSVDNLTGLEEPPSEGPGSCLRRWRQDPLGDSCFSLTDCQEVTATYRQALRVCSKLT
Chain of HIPK2 (Q9H2X6 whole entry): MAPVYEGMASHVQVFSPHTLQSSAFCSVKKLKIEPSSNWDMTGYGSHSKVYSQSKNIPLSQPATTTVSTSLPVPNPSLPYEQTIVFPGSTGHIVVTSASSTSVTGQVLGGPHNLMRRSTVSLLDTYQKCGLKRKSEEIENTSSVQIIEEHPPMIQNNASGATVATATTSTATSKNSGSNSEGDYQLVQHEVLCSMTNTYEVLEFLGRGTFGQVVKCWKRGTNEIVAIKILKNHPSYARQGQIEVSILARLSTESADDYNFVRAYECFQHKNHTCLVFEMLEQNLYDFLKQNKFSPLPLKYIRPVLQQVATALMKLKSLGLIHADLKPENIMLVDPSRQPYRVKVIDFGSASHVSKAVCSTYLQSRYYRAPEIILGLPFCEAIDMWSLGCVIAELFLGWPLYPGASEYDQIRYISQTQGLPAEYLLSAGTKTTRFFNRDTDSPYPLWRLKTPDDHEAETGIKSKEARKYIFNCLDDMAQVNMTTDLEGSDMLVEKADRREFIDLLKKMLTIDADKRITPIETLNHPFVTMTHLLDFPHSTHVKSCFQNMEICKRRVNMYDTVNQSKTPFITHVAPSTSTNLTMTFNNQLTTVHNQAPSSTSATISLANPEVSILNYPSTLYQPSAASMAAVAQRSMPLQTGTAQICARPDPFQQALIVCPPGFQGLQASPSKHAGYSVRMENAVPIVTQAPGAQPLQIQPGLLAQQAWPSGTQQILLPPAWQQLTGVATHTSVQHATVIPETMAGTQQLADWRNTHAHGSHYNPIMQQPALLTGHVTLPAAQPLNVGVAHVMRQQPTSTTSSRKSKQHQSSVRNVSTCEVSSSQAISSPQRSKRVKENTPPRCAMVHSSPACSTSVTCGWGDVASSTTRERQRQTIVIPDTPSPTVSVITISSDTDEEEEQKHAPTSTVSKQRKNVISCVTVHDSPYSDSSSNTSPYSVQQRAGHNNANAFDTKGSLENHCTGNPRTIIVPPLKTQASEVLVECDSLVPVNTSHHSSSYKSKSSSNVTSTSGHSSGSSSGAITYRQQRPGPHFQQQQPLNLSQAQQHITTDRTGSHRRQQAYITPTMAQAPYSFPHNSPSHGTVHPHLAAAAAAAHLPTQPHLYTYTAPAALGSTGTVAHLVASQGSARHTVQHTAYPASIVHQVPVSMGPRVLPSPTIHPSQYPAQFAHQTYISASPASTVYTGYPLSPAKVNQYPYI
T8 sequence (P49841 whole entry): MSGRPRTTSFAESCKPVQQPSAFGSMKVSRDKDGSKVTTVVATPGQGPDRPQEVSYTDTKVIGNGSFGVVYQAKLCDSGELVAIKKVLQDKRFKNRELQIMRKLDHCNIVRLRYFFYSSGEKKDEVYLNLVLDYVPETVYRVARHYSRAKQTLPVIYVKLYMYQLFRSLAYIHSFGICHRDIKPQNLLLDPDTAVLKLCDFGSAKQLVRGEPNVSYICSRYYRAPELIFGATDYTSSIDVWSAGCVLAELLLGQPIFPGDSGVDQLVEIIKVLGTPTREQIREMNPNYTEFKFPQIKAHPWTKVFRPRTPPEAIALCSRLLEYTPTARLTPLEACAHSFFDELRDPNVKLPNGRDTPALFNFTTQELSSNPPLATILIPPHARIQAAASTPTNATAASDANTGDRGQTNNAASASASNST
T11 sequence (Q13976 whole entry): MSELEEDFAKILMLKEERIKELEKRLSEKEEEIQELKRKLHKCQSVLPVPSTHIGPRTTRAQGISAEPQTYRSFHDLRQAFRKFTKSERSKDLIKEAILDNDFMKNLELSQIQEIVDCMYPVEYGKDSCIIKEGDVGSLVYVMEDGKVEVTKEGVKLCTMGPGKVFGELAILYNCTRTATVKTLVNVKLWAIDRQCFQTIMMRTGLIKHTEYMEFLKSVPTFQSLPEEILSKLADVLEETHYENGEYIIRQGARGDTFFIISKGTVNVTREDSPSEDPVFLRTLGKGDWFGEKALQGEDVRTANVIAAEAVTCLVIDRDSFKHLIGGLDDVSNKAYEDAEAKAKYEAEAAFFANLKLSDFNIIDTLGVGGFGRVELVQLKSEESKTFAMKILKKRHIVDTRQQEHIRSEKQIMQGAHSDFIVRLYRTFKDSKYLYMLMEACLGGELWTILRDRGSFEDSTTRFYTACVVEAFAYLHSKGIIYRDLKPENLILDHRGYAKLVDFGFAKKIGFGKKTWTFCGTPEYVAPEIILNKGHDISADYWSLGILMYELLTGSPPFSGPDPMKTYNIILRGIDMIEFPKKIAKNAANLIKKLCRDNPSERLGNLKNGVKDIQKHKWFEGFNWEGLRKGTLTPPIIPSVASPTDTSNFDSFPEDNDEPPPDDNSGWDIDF
T2 sequence (P42684 whole entry): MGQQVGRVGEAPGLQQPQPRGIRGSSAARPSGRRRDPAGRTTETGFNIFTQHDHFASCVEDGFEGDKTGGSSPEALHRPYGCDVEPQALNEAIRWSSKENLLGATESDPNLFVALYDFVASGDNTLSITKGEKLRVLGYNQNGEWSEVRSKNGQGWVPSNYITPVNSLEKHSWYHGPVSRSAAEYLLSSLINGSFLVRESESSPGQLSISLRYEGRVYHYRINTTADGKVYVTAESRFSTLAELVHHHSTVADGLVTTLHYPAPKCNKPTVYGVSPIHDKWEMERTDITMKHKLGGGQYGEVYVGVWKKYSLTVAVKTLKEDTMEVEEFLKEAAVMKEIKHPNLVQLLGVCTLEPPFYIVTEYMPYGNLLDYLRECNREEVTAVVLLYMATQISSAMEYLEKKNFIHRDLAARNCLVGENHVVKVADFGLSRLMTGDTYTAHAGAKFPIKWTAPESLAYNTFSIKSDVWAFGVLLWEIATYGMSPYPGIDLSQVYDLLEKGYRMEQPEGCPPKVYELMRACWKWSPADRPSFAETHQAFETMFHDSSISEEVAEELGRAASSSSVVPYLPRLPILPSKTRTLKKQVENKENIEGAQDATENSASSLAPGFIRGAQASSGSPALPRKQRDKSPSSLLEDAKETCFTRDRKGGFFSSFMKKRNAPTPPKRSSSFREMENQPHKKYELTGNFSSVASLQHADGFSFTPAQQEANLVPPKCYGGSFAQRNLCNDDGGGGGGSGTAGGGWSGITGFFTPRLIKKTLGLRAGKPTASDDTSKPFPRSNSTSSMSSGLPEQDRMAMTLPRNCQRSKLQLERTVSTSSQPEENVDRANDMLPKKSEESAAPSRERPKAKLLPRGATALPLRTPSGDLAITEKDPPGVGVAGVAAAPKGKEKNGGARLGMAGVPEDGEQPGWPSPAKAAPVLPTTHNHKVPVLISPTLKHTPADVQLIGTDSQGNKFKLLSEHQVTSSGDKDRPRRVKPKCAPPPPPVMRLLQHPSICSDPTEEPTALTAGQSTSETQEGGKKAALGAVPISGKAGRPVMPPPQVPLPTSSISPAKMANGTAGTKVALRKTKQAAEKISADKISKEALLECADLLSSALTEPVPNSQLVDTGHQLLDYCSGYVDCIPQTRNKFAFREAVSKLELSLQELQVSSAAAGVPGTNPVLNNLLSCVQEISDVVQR
T5 sequence (Q9Y6M4 whole entry): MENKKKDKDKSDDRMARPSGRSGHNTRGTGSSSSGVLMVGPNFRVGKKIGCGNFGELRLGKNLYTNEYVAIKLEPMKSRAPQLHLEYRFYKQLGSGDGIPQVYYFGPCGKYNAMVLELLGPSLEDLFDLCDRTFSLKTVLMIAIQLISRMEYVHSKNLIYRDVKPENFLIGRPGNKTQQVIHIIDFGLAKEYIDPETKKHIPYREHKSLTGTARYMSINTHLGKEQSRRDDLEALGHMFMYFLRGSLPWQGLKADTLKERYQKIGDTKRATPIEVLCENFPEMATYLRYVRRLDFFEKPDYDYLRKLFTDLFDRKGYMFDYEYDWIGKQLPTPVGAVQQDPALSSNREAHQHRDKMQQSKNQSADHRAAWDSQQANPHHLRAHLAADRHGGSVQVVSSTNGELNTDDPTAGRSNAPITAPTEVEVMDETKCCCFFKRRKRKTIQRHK
T6 sequence (P27361 whole entry): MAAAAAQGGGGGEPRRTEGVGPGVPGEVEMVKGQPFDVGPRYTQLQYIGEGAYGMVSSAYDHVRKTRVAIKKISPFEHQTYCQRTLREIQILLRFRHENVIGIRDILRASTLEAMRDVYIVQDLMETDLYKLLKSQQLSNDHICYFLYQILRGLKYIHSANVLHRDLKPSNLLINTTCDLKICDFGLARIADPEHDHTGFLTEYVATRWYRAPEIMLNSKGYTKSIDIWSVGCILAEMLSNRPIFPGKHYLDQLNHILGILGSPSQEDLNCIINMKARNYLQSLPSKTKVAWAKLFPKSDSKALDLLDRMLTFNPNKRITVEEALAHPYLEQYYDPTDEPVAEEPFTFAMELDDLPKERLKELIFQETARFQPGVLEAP

c1cc(-c2ccc3[nH]ncc3c2)ccn1 [TG693, 5-(4-pyridinyl)-1H-indazole]
inhibition at 1 µM (ABL(E255K)): -4.2%
inhibition at 1 µM (ARG): 4.7%
inhibition at 1 µM (AurC): 2.5%
inhibition at 1 µM (BRK): 5.2%
inhibition at 1 µM (CDK4/CycD3): 5.4%
inhibition at 1 µM (CK1γ3): -7.7%
inhibition at 1 µM (EPHA7): 5%
inhibition at 1 µM (Erk1): 1.4%
inhibition at 1 µM (Erk5): 2.2%
inhibition at 1 µM (FGFR4(V550E)): -4.1%
inhibition at 1 µM (GSK3β): 8.5%
inhibition at 1 µM (HIPK2): -2%
inhibition at 1 µM (HIPK4): 7.6%
inhibition at 1 µM (LOK): 5.9%
inhibition at 1 µM (MAPKAPK2): -26%
inhibition at 1 µM (NEK9): -5.1%
inhibition at 1 µM (NuaK2): 0.4%
inhibition at 1 µM (PAK1): -3.8%
inhibition at 1 µM (PAK6): -4.3%
inhibition at 1 µM (PDK1): -3.9%
inhibition at 1 µM (PGK): 11%
inhibition at 1 µM (PIM3): 6.6%
inhibition at 1 µM (PKACα): 9.5%
inhibition at 1 µM (PKACγ): 1.5%
inhibition at 1 µM (PKCδ): 1.5%
inhibition at 1 µM (PKN1): 34.5%
inhibition at 1 µM (RET(S891A)): -18%
inhibition at 1 µM (SRM): 1.5%
inhibition at 1 µM (TBK1): 5.8%
inhibition at 1 µM (TRKB): 0.1%
inhibition at 1 µM (TXK): -1%
